# Assay results taken from patent US10479795B2 (Incyte Corporation, priority 2016, dated 2019).
# Counter-ions that a name gives are not always drawn. Like-named read-outs stand apart in the source and are kept apart here.
# Key:
# [1] = target: PI3Kγ (p110γ) Recombinant Human Protein (Homo sapiens (Human), UniProt P48736); experiment: PI3K-γ Scintillation Proximity Assay; assay type: biochemical; details: read-out: PI3Kγ IC50
# Procedure, shortened: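 Radiometric SPA readout: […] bound to WGA beads after overnight shaking, IC50 derived from % activity of DMSO control. Reaction used human p110γ, 2 μM ATP, 20 μM PIP2, pH 6.7 MOPS buffer with MgCl2, DTT, CHAPS, 2% DMSO, room temperature.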
# [2] = system: Phosphorylated Ribosomal Protein S6 (RPS6); experiment: THP-1 RPS6 ELISA Assay; assay type: cell-based, Human; details: THP-1 cells, read-out: PI3Kγ_THP1_RPS6_ELISA IC50
# Procedure, shortened: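 IC50 values come from a curve of percent inhibition against log compound concentration, using phospho-RPS6 ELISA (450 nm) on THP-1 lysates. Cells were serum-starved overnight, exposed to compound for 2 h at 37 °C, then challenged 15 min with 10 nM MCP-1.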
# [3] = target: PI3Kδ (p110δ/p85α) Recombinant Human Protein (Homo sapiens (Human), UniProt O00329); experiment: PI3Kδ Scintillation Proximity Assay; assay type: biochemical
# Procedure, shortened: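 Assay conditions: 2 μM ATP (radiolabelled), 20 μM PIP2, 3.4 nM PI3Kδ, 20 mM MOPS pH 6.7 with 10 mM MgCl2, 5 mM DTT, 0.03% CHAPS, 2 h at room temperature. Signal from bead-captured 33P product; IC50 versus solvent control.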
# PI3Kδ (p110δ/p85α) Recombinant Human Protein, sequence (O00329 whole entry): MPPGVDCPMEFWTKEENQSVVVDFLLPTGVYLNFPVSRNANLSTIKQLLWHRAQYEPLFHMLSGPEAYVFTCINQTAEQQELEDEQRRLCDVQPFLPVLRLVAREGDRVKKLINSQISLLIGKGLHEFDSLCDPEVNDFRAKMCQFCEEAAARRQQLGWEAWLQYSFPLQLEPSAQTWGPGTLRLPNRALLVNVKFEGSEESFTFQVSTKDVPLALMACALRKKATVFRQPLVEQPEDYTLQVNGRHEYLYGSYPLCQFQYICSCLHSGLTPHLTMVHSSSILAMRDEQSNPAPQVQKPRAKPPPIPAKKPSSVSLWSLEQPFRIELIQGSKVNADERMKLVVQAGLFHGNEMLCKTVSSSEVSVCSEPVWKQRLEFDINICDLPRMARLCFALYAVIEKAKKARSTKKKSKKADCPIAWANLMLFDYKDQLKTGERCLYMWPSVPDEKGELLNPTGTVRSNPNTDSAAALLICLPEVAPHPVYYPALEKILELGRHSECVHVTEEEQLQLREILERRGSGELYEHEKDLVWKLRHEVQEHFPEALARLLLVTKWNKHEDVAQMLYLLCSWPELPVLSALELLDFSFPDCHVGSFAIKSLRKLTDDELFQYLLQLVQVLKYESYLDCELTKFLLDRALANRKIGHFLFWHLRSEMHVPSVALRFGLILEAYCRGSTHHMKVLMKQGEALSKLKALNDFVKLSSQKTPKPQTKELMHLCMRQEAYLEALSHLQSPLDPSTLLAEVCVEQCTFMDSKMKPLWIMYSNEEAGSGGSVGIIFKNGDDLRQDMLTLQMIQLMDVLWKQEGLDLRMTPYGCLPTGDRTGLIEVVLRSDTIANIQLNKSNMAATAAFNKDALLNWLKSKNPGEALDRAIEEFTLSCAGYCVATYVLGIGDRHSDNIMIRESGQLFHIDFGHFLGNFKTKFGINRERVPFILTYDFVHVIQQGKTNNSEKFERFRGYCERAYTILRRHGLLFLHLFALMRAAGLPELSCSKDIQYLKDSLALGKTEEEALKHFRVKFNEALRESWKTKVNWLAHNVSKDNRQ
# PI3Kδ (p110δ/p85α) Recombinant Human Protein, sequence (P27986 whole entry partner): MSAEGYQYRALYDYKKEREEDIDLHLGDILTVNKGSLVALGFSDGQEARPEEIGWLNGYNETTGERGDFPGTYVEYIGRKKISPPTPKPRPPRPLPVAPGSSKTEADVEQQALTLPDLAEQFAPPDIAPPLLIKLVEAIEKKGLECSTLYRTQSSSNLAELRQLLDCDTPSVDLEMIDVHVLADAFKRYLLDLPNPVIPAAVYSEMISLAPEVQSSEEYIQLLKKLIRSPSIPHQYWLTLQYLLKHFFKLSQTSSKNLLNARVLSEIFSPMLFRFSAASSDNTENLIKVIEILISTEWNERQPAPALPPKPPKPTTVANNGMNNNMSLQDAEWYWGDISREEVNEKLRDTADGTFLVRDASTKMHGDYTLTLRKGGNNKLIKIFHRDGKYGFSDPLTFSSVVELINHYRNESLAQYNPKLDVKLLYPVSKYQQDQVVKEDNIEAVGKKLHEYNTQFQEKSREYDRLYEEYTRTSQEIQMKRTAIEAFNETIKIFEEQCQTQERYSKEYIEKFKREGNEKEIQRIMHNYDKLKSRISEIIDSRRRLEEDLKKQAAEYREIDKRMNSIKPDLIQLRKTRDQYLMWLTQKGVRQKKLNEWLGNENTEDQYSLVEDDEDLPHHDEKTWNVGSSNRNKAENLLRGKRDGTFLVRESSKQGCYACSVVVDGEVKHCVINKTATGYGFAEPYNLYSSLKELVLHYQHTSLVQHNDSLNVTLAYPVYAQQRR
# PI3Kγ (p110γ) Recombinant Human Protein, sequence (P48736 whole entry): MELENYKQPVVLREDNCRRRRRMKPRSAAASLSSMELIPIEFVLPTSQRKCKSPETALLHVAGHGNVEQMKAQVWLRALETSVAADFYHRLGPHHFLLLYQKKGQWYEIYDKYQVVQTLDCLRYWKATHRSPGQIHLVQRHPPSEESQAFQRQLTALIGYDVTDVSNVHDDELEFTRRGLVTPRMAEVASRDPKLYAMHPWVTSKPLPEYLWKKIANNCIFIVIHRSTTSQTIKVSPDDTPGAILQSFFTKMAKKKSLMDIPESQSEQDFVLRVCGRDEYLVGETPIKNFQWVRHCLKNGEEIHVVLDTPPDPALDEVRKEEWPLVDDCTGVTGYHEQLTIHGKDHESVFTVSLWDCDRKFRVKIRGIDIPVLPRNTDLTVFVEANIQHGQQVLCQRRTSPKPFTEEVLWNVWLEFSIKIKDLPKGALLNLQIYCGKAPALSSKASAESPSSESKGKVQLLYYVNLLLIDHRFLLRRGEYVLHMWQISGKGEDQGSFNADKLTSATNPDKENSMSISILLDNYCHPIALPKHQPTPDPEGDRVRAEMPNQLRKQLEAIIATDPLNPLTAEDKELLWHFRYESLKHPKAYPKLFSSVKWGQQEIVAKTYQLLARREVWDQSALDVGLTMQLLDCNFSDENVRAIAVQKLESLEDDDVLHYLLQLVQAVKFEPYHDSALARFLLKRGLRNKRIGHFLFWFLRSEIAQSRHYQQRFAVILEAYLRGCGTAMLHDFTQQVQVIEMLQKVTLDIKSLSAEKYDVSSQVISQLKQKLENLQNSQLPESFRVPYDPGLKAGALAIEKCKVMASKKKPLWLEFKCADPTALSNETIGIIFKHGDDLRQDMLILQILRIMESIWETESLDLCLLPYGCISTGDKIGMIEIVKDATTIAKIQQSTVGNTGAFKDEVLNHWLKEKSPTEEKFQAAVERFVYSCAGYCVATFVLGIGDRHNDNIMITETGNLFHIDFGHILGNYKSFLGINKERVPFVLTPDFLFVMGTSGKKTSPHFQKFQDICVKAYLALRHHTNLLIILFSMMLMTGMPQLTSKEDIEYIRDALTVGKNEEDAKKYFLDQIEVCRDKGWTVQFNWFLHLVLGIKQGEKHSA
Molecule,IC50 [1] [nM],IC50 [3] [nM],IC50 ([2]; Homo sapiens) [nM],IC50 [2] [nM]
"Cc1ccc(S(=O)(=O)NCC2CCS(=O)(=O)C2)cc1-c1cnc2c(N)ncnn12 (stereo not drawn) [Example 135, 3-(4-aminoimidazo[2,1-f][1,2,4]triazin-7-yl)-N-((1,1-dioxidotetrahydrothiophen-3-yl)methyl)-4-methylbenzenesulfonamide]",< 100,100 to 500,> 1000,
"C[C@]1(O)CC[C@H](NS(=O)(=O)c2cc(-c3cnc4c(N)ncnn34)ccc2Cl)CC1 [Example 377, 5-(4-aminoimidazo[2,1-f][1,2,4]triazin-7-yl)-2-chloro-N-((1r,4r)-4-hydroxy-4-methylcyclohexyl)benzenesulfonamide]",< 100,< 100,,< 100
"3-[8-Amino-6-(2-fluoro-6-methoxyphenyl)imidazo[1,2-a]pyrazin-3-yl]-N-(trans-4-hydroxycyclohexyl)-4-methylbenzenesulfonamide [Example 34]",< 100,100 to 500,,100 to 500
"Cc1ccc(S(=O)(=O)N2C(C)COCC2C)cc1-c1cnc2c(N)ncnn12 (stereo not drawn) [Example 155, 7-(5-((3,5-dimethylmorpholino)sulfonyl)-2-methylphenyl)imidazo[2,1-f][1,2,4]triazin-4-amine]",< 100,100 to 500,100 to 500,
"Cc1nc(N)c2ncc(-c3cc(S(=O)(=O)NCC(O)C(F)(F)F)ccc3C)n2n1 (single isomer, unassigned) [Example 266, 3-(4-Amino-2-methylimidazo[1,2-f][1,2,4]triazin-7-yl)-4-methyl-N-(3,3,3-trifluoro-2-hydroxypropyl)benzenesulfonamide (single enantiomer isolated)]",< 100,100 to 500,,100 to 500
"Cc1ccc(S(=O)(=O)NC23CCC(C(C)(C)O)(CC2)C3)cc1-c1cnc2c(N)ncnn12 [Example 431, 3-(4-Aminoimidazo[1,2-f][1,2,4]triazin-7-yl)-N-(4-(2-hydroxypropan-2-yl)bicyclo[2.2.1]heptan-1-yl)-4-methylbenzenesulfonamide trifluoroacetate salt]",< 100,100 to 500,100 to 500,
"Cc1ccc(S(=O)(=O)NC23CC(N4CCOCC4)(C2)C3)cc1-c1cnc2c(N)ncnn12 [Example 116, 3-(4-Aminoimidazo[1,2-f][1,2,4]triazin-7-yl)-4-methyl-N-(3-morpholinobicyclo[1.1.1]pentan-1-yl)benzenesulfonamide trifluoroacetate salt]",< 100,500 to 2000,,100 to 500
"Cc1nc(N)c2ncc(-c3cc(S(=O)(=O)NCC(O)C(F)(F)F)ccc3C)n2n1 (single isomer, unassigned) [Example 267, 3-(4-Amino-2-methylimidazo[1,2-f][1,2,4]triazin-7-yl)-4-methyl-N-(3,3,3-trifluoro-2-hydroxypropyl)benzenesulfonamide (single enantiomer isolated)]",< 100,100 to 500,,100 to 500
"3-(4-Amino-2-(trifluoromethyl)imidazo[2,1- f][1,2,4]triazin-7-yl)-N-(3- (hydroxymethyl)bicyclo[2.1.1]pentan-1-yl)-4-(methyl- d3)benzenesulfonamide trifluoroacetate salt [Example 420]",< 100,100 to 500,,100 to 500
"Nc1nc(C(F)(F)F)nn2c(-c3ccc(F)c(S(=O)(=O)NC45CCC(CO)(C4)C5)c3)cnc12 [Example 418, 5-(4-Amino-2-(trifluoromethyl)imidazo[1,2-f][1,2,4]triazin-7-yl)-2-fluoro-N-(4-(hydroxymethyl)bicyclo[2.1.1]hexan-1-yl)benzenesulfonamide]",< 100,100 to 500,,> 1000
"Cc1ccc(S(=O)(=O)N2CC[C@@H](F)[C@@H](N)C2)cc1-c1cnc2c(N)nc(C(F)(F)F)cn12 [Example 308, 3-(5-(((3S,4R)-3-amino-4-fluoropiperidin-1-yl)sulfonyl)-2-methylphenyl)-6-(trifluoromethyl)imidazo[1,2-a]pyrazin-8-amine]",< 100,< 100,< 100,

# More lines, main results first:
IC50 [1] [nM],IC50 [3] [nM],IC50 ([2]; Homo sapiens) [nM],Molecule,IC50 [2] [nM]
< 100,100 to 500,,"Cc1nc(N)c2ncc(-c3cc(S(=O)(=O)NCC4(O)CCC4)ccc3C)n2n1 [Example 269, 3-(4-Amino-2-methylimidazo[1,2-f][1,2,4]triazin-7-yl)-N-((1-hydroxycyclobutyl)methyl)-4-methylbenzenesulfonamide trifluoroacetate salt]",100 to 500
< 100,500 to 2000,> 1000,"CO[C@H]1CC[C@H](NS(=O)(=O)c2ccc(C)c(-c3cnc4c(N)nccn34)c2)CC1 [Example 53, 3-(8-Aminoimidazo[1,2-a]pyrazin-3-yl)-N-(trans-4-methoxycyclohexyl)-4-methylbenzenesulfonamide]",
< 100,< 100,500 to 1000,"[2H]C([2H])([2H])c1ccc(S(=O)(=O)NC23CCC(O)(C2)C3)cc1-c1cnc2c(N)nc(C)cn12 [Example 384, 3-(8-Amino-6-methylimidazo[1,2-a]pyrazin-3-yl)-N-(4-hydroxybicyclo[2.1.1]hexan-1-yl)-4-(methyl-d3)benzenesulfonamide]",
< 100,100 to 500,> 1000,"Cc1ccc(-c2cnc3c(N)nccn23)cc1S(=O)(=O)N[C@H]1CC[C@H](O)CC1 [Example 41, 5-(8-Aminoimidazo[1,2-a]pyrazin-3-yl)-N-(trans-4-hydroxycyclohexyl)-2-methylbenzenesulfonamide]",
< 100,100 to 500,,"Cc1ccc(S(=O)(=O)NC23CC(Cn4cccn4)(C2)C3)cc1-c1cnc2c(N)nc(C(F)(F)F)nn12 [Example 332, N-(3-((1H-pyrazol-1-yl)methyl)bicyclo[1.1.1]pentan-1-yl)-3-(4-amino-2-(trifluoromethyl)imidazo[1,2-f][1,2,4]triazin-7-yl)-4-methylbenzenesulfonamide trifluoroacetate salt]",< 100
< 100,100 to 500,100 to 500,"Cc1cc(-c2cn3c(-c4cc(S(C)(=O)=O)ccc4C)cnc3c(N)n2)c(F)cn1 [Example 489, 6-(5-Fluoro-2-methylpyridin-4-yl)-3-(2-methyl-5-(methylsulfonyl)phenyl)imidazo[1,2-a]pyrazin-8-amine trifluoroacetate]",
< 100,100 to 500,> 1000,"Cc1ccc(S(=O)(=O)N[C@H]2CC[C@H](O)CC2)cc1-c1cnc2c(N)nc(-c3cnn(C)c3)cn12 [Example 29, 3-[8-Amino-6-(1-methyl-1H-pyrazol-4-yl)imidazo[1,2-a]pyrazin-3-yl]-N-(trans-4-hydroxycyclohexyl)-4-methylbenzenesulfonamide]",
< 100,500 to 2000,500 to 1000,"Cc1ccc(S(=O)(=O)CC2CCOCC2)cc1-c1cnc2c(N)ncnn12 [Example 492, 7-(2-Methyl-5-(((tetrahydro-2H-pyran-4-yl)methyl)sulfonyl)phenyl)imidazo[2,1-f][1,2,4]triazin-4-amine trifluoroacetate]",
100 to 500,100 to 500,> 1000,"Nc1nccn2c(-c3ccc(F)c(S(=O)(=O)NCC4(CO)CCOCC4)c3)cnc12 [Example 360, 5-(8-aminoimidazo[1,2-a]pyrazin-3-yl)-2-fluoro-N-((4-(hydroxymethyl)tetrahydro-2H-pyran-4-yl)methyl)benzenesulfonamide]",
< 100,500 to 2000,> 1000,"Cc1ccc(S(=O)(=O)CCC(C)O)cc1-c1cnc2c(N)nc(C(F)(F)F)cn12 (stereo not drawn) [Example 494, 4-((3-(8-Amino-6-(trifluoromethyl)imidazo[1,2-a]pyrazin-3-yl)-4-methylphenyl)sulfonyl)butan-2-ol]",
< 100,500 to 2000,> 1000,"Cc1ccc(S(=O)(=O)NC23CC(c4nnn[nH]4)(C2)C3)cc1-c1cnc2c(N)nc(C(F)(F)F)cn12 [Example 292, N-(3-(1H-Tetrazol-5-yl)bicyclo[1.1.1]pentan-1-yl)-3-(8-amino-6-(trifluoromethyl)imidazo[1,2-a]pyrazin-3-yl)-4-methylbenzenesulfonamide trifluoroacetate salt]",
< 100,100 to 500,100 to 500,"Cc1ccc(S(=O)(=O)N[C@H]2CC[C@H](O)CC2)cc1-c1cnc2c(N)nc(-c3cnn(CC(F)(F)F)c3)cn12 [Example 76, 3-{8-amino-6-[1-(2,2,2-trifluoroethyl)-1H-pyrazol-4-yl]imidazo[1,2-a]pyrazin-3-yl}-N-(trans-4-hydroxycyclohexyl)-4-methylbenzenesulfonamide]",
< 100,500 to 2000,500 to 1000,"Cc1ccc(S(=O)(=O)N[C@H]2COC[C@@H]2O)cc1-c1cnc2c(N)ncnn12 [Example 123, 3-(4-aminoimidazo[2,1-f][1,2,4]triazin-7-yl)-N-[(3S,4R)-4-hydroxytetrahydrofuran-3-yl]-4-methylbenzenesulfonamide]",
